Measured values as given in PubChem BioAssay AID1996.
Converted amounts (≈) assume the structure as drawn.

Conditions: buffer; pH 7.4; 200.0 µM

| Compound | solubility kinetic [µg/mL] |
| --- | --- |
| CCN1CCN(C(=O)COc2ccc3oc4c(c3c2)CCCC4)CC1 | > 51.4 |
| Cc1ccc(-c2csc(NC3OC(=O)c4ccccc43)n2)cc1 (stereo not given) | 0.4 (≈ 1.24 µM) |
| CC(C)c1ccc(C(C)NC(=S)NC2CCCCC2)cc1 (stereo not given) | 1.9 (≈ 6.24 µM) |
| COc1ccc(N2CC(C(=O)Nc3cccnc3)CC2=O)cc1 (stereo not given) | > 46.7 |
| CC(C)Oc1ccc(S(=O)(=O)N2CCOCC2)cc1NC(=O)Cc1ccsc1 | 31.8 (≈ 74.9 µM) |
| COc1cccc(/C=C/C(=O)OCC(=O)Nc2ccc(Cl)cn2)c1 | < 0.4 |
| COc1ccccc1OCC(=O)NCCCN1CCOCC1 | 36.1 (≈ 117 µM) |
| Cc1ccc(C)c(NC(=O)C2CC(=O)N(C3CCCCC3)C2)c1 (stereo not given) | 41.5 (≈ 132 µM) |
| COC(=O)CN=Cc1c(O)n(-c2ccc(Cl)cn2)c(=O)c2ccccc12 | > 55.8 |
| CCOc1ccc(NC(=O)c2[nH]c(C)c(C(C)=O)c2C)cc1 | 3.4 (≈ 11.3 µM) |
| O=C(CCC(=O)NC1CCCCC1)Nc1cccnc1 | > 41.3 |
| CCOC(=O)CNC(=S)NN(C)C | > 30.8 |
| COC(=O)c1ccc(NC(=O)Nc2ccc(OC)cc2)cc1 | 1.4 (≈ 4.66 µM) |
| CN1CCN(C(=O)c2ccccc2[N+](=O)[O-])CC1 | 31.5 (≈ 126 µM) |
| Cc1noc(C)c1C(=O)NCc1ccccc1F | 34.7 (≈ 140 µM) |
| Cc1ccc(C(=O)N/C(=C/c2ccco2)C(=O)NCc2ccco2)cc1 | > 52.6 |
| O=C(COC(=O)c1ccc(F)c(S(=O)(=O)N2CCOCC2)c1)NCc1ccc2c(c1)OCO2 | 53.8 (≈ 112 µM) |
| COc1ccc(NC(=O)CC2CC3CCC2C3)cn1 (stereo not given) | 29.9 (≈ 115 µM) |
| COc1ccc(-c2cc(C(=O)Nc3ccccc3F)on2)cc1 | < 0.3 |
| CC1=C(C(=O)Nc2ccccc2)C(c2cccs2)NC(=O)N1 (stereo not given) | 41.3 (≈ 132 µM) |
| COc1cccc(C(=O)NCCSCc2ccccc2Cl)c1 | 16 (≈ 47.6 µM) |
| COC(=O)C(=C/C=C/c1cccnc1)C(=O)OC | > 37.1 |

| Compound | solubility kinetic [µg/mL] |
| --- | --- |
| COc1ccc(S(=O)(=O)NCc2cccnc2)c2ccccc12 | 37.2 (≈ 113 µM) |
| Cl.Clc1cccc(OCCN2CCCC2)c1 | 37.2 |
| CC(C)=CCN1CCN(Cc2cccc3nccnc23)CC1CCO (stereo not given) | > 51.1 |
| Cc1cccc(NC(=O)Cn2c(=O)oc3ccccc32)n1 | > 42.5 |
| Cc1ccccc1Sc1ccc(N)cn1 | 31.4 (≈ 145 µM) |
| CCn1c(SCC(=O)NC2CCCC2)nnc1-c1ccco1 | > 48.1 |
| CC(=O)NC(CC(=O)O)c1ccc([N+](=O)[O-])cc1 (stereo not given) | > 37.8 |
| N=C1c2ccccc2CN1c1ccc(F)c([N+](=O)[O-])c1 | > 40.7 |
| COc1cc2c(C(=O)O)c(C)n(C)c2cc1Br | > 44.7 |
| Cc1ccc(SCCOCCN2CCOCC2)cc1.Cl | > 47.7 |
| CCN(CC)CC(=O)Nc1ccc(C)cc1C(=O)c1ccccc1 | > 48.7 |
| O=C(COC(=O)c1ccccc1OCc1ccccc1Cl)NC1CCS(=O)(=O)C1 (stereo not given) | > 65.7 |
| Cc1cccc(C(=O)N[C@H](C(=O)NCc2cccs2)C(C)C)c1 | 7.5 (≈ 22.7 µM) |
| CCn1cc(C=C2C(=O)N(C)C(=O)N(C)C2=O)c2ccccc21 | 1 (≈ 3.21 µM) |
| CCc1ccc(OCC(=O)Oc2ccc([N+](=O)[O-])cc2)cc1 | 29.4 (≈ 97.6 µM) |
| CC1=C([N+](=O)[O-])C(c2ccc(Cl)cc2)NC(=O)N1C (stereo not given) | 30.4 (≈ 108 µM) |
| COc1ccc(C2C(C#N)=C(N)OC3=C2C(=O)CCC3)cc1OC (stereo not given) | > 49 |
| CN(C)c1ccc(NC(=O)c2ccc(N3CCOCC3)nc2)cc1 | 20.4 (≈ 62.5 µM) |
| CCn1c(SCC(=O)Nc2ccc(C)cc2)nc(O)cc1=O | > 47.9 |
| CC(=O)c1cccc(NC2c3ccccc3C(=O)N2Cc2ccco2)c1 (stereo not given) | 43.3 (≈ 125 µM) |
| COCc1[nH]c(=S)[nH]c(=O)c1C | > 27.9 |
| COc1ccc(C(CNC(=O)c2cc3c(s2)CCCC3)N2CCOCC2)cc1 (stereo not given) | 36.4 (≈ 90.9 µM) |

| Compound | solubility kinetic [µg/mL] |
| --- | --- |
| Cc1sc2ncnc(NCC(c3ccccc3)N(C)C)c2c1C (stereo not given) | 47.1 (≈ 144 µM) |
| Cc1ccc(NC(=S)NCc2ccc3c(c2)cc(C)n3C)c(C)c1 | 0.6 (≈ 1.78 µM) |
| CCOc1ccc(N2C(=O)NC(=O)/C(=C\c3ccccc3[N+](=O)[O-])C2=O)cc1 | > 57.2 |
| CCOc1ccccc1NC(=O)CN1CCCCCC1.Cl | 32.9 |
| O=C(COC(=O)c1ccc(O)cc1O)NC1CC1 | > 37.7 |
| COC(=O)c1ccc(COc2ccc(/C=N/O)cc2)o1 | > 41.3 |
| COc1ccc(S(=O)(=O)N2CN3CCN(C3)C2)cc1OC | > 47 |
| N#Cc1ccc(NC(=O)Cn2cnc([N+](=O)[O-])c2)cc1 | 37.4 (≈ 138 µM) |
| Cc1ccc(NC(=O)C(=O)NCCc2c[nH]c3ccccc23)c(C)c1 | 0.4 (≈ 1.19 µM) |
| CCOC(=O)c1c(C)n(C)c2cc([N+](=O)[O-])c(O)c([N+](=O)[O-])c12 | 44.9 (≈ 139 µM) |
| Nc1nc2c(ccc3ccccc32)s1 | 27.4 (≈ 137 µM) |
| Cc1ccnn1-c1ccc(C(=O)NCc2ccccc2CN2CCOCC2)cc1 | > 58.6 |
| O=C(NCC1CCCO1)c1cc2ccccc2o1 (stereo not given) | > 36.8 |
| Cl.O=C(COc1ccc(Cl)cc1)NCCN1CCCC1 | > 47.9 |
| CC1CN(C(=S)Nc2ccc(Br)cc2)CC(C)O1 (stereo not given) | 48.5 (≈ 147 µM) |
| O=C(Nc1cccnc1)c1ccccc1-c1ccccc1 | > 41.1 |
| O=c1c(Cc2ccccc2)c(O)c2cccc3c4c(n1c23)CCCC4 | 3.7 (≈ 11.2 µM) |
| COc1cc(OC)c(N(C)S(=O)(=O)c2cccc(C(=O)OCC(=O)N3CCOCC3)c2)cc1Cl | 56.6 (≈ 110 µM) |
| O=C(CSCc1ccc(Cl)cc1)Nc1cccc(C(=O)O)c1 | > 50.4 |
| CCCCc1nc2cc(C(=O)N3CCC[C@H]3CO)ccc2o1 | > 45.4 |
| CC(=O)NCCNS(=O)(=O)c1ccc(C)c([N+](=O)[O-])c1 | > 45.2 |
| Cc1[nH]c2ccccc2c1C(=O)C(=O)NC1CC1 | > 36.3 |

| Compound | solubility kinetic [µg/mL] |
| --- | --- |
| Cc1ccc[n+](CC(=O)N2CCCCC2)c1C.[Br-] | > 47 |
| CCC(CC)C(=O)N1CCN(c2ccccc2)CC1 | > 39.1 |
| O=C(NCc1ccccc1Cl)C1CCN(c2cnccn2)CC1 | > 49.6 |
| COc1ccccc1NC(=O)Cn1c([N+](=O)[O-])cnc1C | > 43.5 |
| CC(=O)Nc1cccc(NCC(=O)Nc2cc(S(=O)(=O)N3CCCCC3)ccc2Cl)c1 | 35.8 (≈ 77 µM) |
| COc1ccc(C(=O)C2CCCN(C(=O)c3cnsn3)C2)c(C)c1 (stereo not given) | 40 (≈ 116 µM) |
| Cc1ccc(C(=O)NC(C)C2CC3CCC2C3)c(C)c1 (stereo not given) | 29.9 (≈ 110 µM) |
| CCOC(=O)/C(C#N)=C\c1ccc(OC)c(OC)c1 | 2.4 (≈ 9.19 µM) |
| CC(OC(=O)COc1ccc(C#N)cc1)C(=O)c1ccccc1 (stereo not given) | > 46.4 |
| Cc1ccc(CC(=O)Nc2cc(C)on2)cc1 | 14 (≈ 60.8 µM) |
| N#Cc1ccc(-c2cccnc2)nc1SCC(=O)c1ccccc1 | 2.8 (≈ 8.45 µM) |
| CCOc1cc(N2CCOCC2)c(OCC)cc1NC(=O)c1cnccn1 | 11.9 (≈ 32 µM) |
| COCCN(CC(=O)Nc1cccc(C)c1C)C(=O)c1oc2ccccc2c1C | 7.4 (≈ 18.8 µM) |
| COc1ccc(C(=O)CC(=O)C(=O)Nc2ccccc2OC)cc1 | 16.2 (≈ 49.5 µM) |
| CC(C)CNP(=S)(c1ccccc1)C(C)(C)C (stereo not given) | 1.7 (≈ 6.31 µM) |
| CC(OC(=O)CCCc1nc2ccccc2s1)C(=O)NC(N)=O (stereo not given) | > 50.3 |
| Cc1ccc(NC(=S)Nc2ccc(F)cc2)cc1 | 11.1 (≈ 42.6 µM) |
| O=C(NC12CC3CC(CC(C3)C1)C2)c1ccc(Br)o1 | 9.7 (≈ 29.9 µM) |
| COc1cccc(NC(=O)CN2C(=O)NC(C)(C3CC3)C2=O)c1 (stereo not given) | > 47.6 |
